{
  "source": "patent US20150104507A1",
  "about": "(UCB PHARMA GMBH, priority 2010, published 2015)",
  "key": {"[1]": {"test": "Thorough QT trial: dizziness as adverse event vs tmax", "type": "in vivo", "conditions": "human, plasma, oral; day 6 of SP640; range 1-4 h; read-out: tmax, time for maximum LCM plasma concentration (median)", "description": "In a thorough QT trial safety profile of lacosamide (LCM) was characterized. During day 2-6 of multiple dose administration of an IR formulation (Vimpat®) of 200 or 400 mg LCM bid 45 times ‘DIZZINESS’ was detected as adverse event (AE). Time of onset was 1.4+/−0.8 h after actual administration of LCM. This corresponds exactly to the typical time for maximum LCM plasma concentration tmax (e.g., 1 h (median, range 1-4 h) at day 6 of SP640)."}, "[2]": {"test": "PK-PD modeling of seizure frequency (Emax model, Example 54)", "type": "in vivo, human", "conditions": "human, plasma, read-out: Corresponding AUCτ,ss", "text": "(§1) Objectives of the PK-PD analysis were to evaluate and describe the correlation between the LCM plasma concentration over time (PK parameter) and the reduction of daily seizures over time (PD parameter) based on the pooled data from the previous clinical human trials.\n(§2) The evaluation of PK-PD modeling was done based on the Emax model.\n(§3) The slope of the linear regression is equal to the mean daily number of seizures.\n(§4) In a first step, the validity of the developed equations for approximation of AUCτ,ss, the PK parameter of interest in the current PK-PD evaluation, was shown.\n(§5) Based on the relative difference of the individual slopes during Titration and Maintenance Phase vs Baseline slope and the approximated AUCτ,ss,m, the PK-PD evaluation was performed using a linear model, the Emax model, and the Emax 100 model. […] Finally, the Emax model had the lowest weighted sum of squares and was therefore selected as the most appropriate PK-PD model to describe the data. […] The AUC50 is defined as the AUCτ,ss that is needed in individuals to achieve 50% of the maximum effect (decrease in seizure frequency)."}, "[3]": {"system": "subjects with partial-onset seizures", "test": "PK-PD modeling of seizure frequency (Emax model, Example 54)", "type": "in vivo, human", "text": "as §1, §2, §3, §4, §5"}, "[4]": {"conditions": "cited from earlier work"}, "[5]": {"conditions": "AUC of 67 μg/mL*h (mean dose 200 mg LCM bid)"}, "[6]": {"conditions": "Emax model, daily dose 50 mg bid (subject with Vd 50 L, ke 0.06 h^-1)"}, "[7]": {"conditions": "Emax model, daily dose 100 mg bid (subject with Vd 50 L, ke 0.06 h^-1)"}, "[8]": {"conditions": "Emax model, daily dose 110 mg bid (subject with Vd 50 L, ke 0.06 h^-1), AUC50"}, "[9]": {"conditions": "Emax model, daily dose 150 mg bid (subject with Vd 50 L, ke 0.06 h^-1)"}, "[10]": {"conditions": "Emax model, daily dose 200 mg bid (subject with Vd 50 L, ke 0.06 h^-1)"}, "[11]": {"conditions": "Emax model, daily dose 250 mg bid (subject with Vd 50 L, ke 0.06 h^-1)"}, "[12]": {"conditions": "Emax model, daily dose 300 mg bid (subject with Vd 50 L, ke 0.06 h^-1)"}},
  "note": "Several values for one entry are separate records, joined by “and”; a condition that tells them apart may be missing. Identical values can stand only once. Like-named read-outs stand apart in the source and are kept apart here.",
  "data": [
    {"smiles": "COC[C@@H](NC(C)=O)C(=O)NCc1ccccc1", "note": "[Lacosamide, (R)-2-Acetamido-N-benzyl-3-methoxypropionamide]", "values": [
      {"measurement": "Tmax", "setting": "[1]", "value": 1, "unit": "h"},
      {"measurement": "AUC", "setting": "[2]; 50 mg", "value": 16.7, "unit": "µg·h/mL"},
      {"measurement": "AUC", "setting": "[2]; 100 mg", "value": 33.3, "unit": "µg·h/mL"},
      {"measurement": "AUC", "setting": "[2]; 110 mg", "value": 35.9, "unit": "µg·h/mL"},
      {"measurement": "AUC", "setting": "[2]; 150 mg", "value": 50, "unit": "µg·h/mL"},
      {"measurement": "AUC", "setting": "[2]; 200 mg", "value": 66.7, "unit": "µg·h/mL"},
      {"measurement": "AUC", "setting": "[2]; 250 mg", "value": 83.3, "unit": "µg·h/mL"},
      {"measurement": "AUC", "setting": "[2]; 300 mg", "value": 100, "unit": "µg·h/mL"},
      {"measurement": "decrease as percent of the maximum effect", "setting": "[3]; [5]", "value": 65, "unit": "%"},
      {"measurement": "decrease of the daily number of seizures", "setting": "[3]; [5]", "value": 46, "unit": "%"},
      {"measurement": "AUC50 (AUC needed to achieve half of the maximum effect), arithmetic mean (SD)", "setting": "[3]; Emax model, N = 615 subjects", "value": "35.9 (185.6) μg/mL*h"},
      {"measurement": "AUC50, 1st quantile", "setting": "[3]; Emax model, N = 615 subjects", "value": 0, "unit": "µg·h/mL"},
      {"measurement": "AUC50, 3rd quantile", "setting": "[3]; Emax model, N = 615 subjects", "value": 27.27, "unit": "µg·h/mL"},
      {"measurement": "AUC50, median", "setting": "[3]; Emax model, N = 615 subjects", "value": 1.05, "unit": "µg·h/mL"},
      {"measurement": "AUC50, range", "setting": "[3]; Emax model, N = 615 subjects", "value": "0 to 3998", "unit": "µg·h/mL"},
      {"measurement": "Emax, 3rd quantile", "setting": "[3]; Emax model, N = 615 subjects", "value": 100, "unit": "%"},
      {"measurement": "Emax, arithmetic mean (SD)", "setting": "[3]; Emax model, N = 615 subjects", "value": "71.0 (30.0) %"},
      {"measurement": "Emax, median", "setting": "[3]; Emax model, N = 615 subjects", "value": 77.0, "unit": "%"},
      {"measurement": "Emax, range", "setting": "[3]; Emax model, N = 615 subjects", "value": "0.06-100%"},
      {"measurement": "Emax, maximum effect (reduction of the seizure frequency vs baseline)", "setting": "[3]; Emax model, pooled clinical trials, adjunctive LCM", "value": 71, "unit": "%"},
      {"measurement": "AUC50 (AUC at steady-state to achieve half of the maximum decrease in partial seizure frequency), mean", "setting": "[3]; Emax model, pooled clinical trials, listed as LCM", "value": "35 µg·h/mL and 35.9 µg·h/mL"},
      {"measurement": "Decrease of daily number of seizures, E(AUC) % of Emax", "setting": "[3]; [6]", "value": "31.7 % of Emax"},
      {"measurement": "Decrease of daily number of seizures, E(AUC) % of base line", "setting": "[3]; [6]", "value": "22.5 % of base line"},
      {"measurement": "Decrease of daily number of seizures, E(AUC) % of Emax", "setting": "[3]; [7]", "value": "48.1 % of Emax"},
      {"measurement": "Decrease of daily number of seizures, E(AUC) % of base line", "setting": "[3]; [7]", "value": "34.2 % of base line"},
      {"measurement": "Decrease of daily number of seizures, E(AUC) % of Emax", "setting": "[3]; [8]", "value": "50 % of Emax"},
      {"measurement": "Decrease of daily number of seizures, E(AUC) % of base line", "setting": "[3]; [8]", "value": "35.1 % of base line"},
      {"measurement": "Decrease of daily number of seizures, E(AUC) % of Emax", "setting": "[3]; [9]", "value": "58.2 % of Emax"},
      {"measurement": "Decrease of daily number of seizures, E(AUC) % of base line", "setting": "[3]; [9]", "value": "41.3 % of base line"},
      {"measurement": "Decrease of daily number of seizures, E(AUC) % of Emax", "setting": "[3]; [10]", "value": "65.0 % of Emax"},
      {"measurement": "Decrease of daily number of seizures, E(AUC) % of base line", "setting": "[3]; [10]", "value": "46.1 % of base line"},
      {"measurement": "Decrease of daily number of seizures, E(AUC) % of Emax", "setting": "[3]; [11]", "value": "69.9 % of Emax"},
      {"measurement": "Decrease of daily number of seizures, E(AUC) % of base line", "setting": "[3]; [11]", "value": "49.6 % of base line"},
      {"measurement": "Decrease of daily number of seizures, E(AUC) % of Emax", "setting": "[3]; [12]", "value": "73.6 % of Emax"},
      {"measurement": "Decrease of daily number of seizures, E(AUC) % of base line", "setting": "[3]; [12]", "value": "52.2 % of base line"},
      {"measurement": "decrease as percent of the maximum effect", "setting": "[3]; in vivo", "value": 74, "unit": "%"},
      {"measurement": "decrease of the daily number of (partial) seizures", "setting": "[3]; in vivo", "value": 52, "unit": "%"},
      {"measurement": "maximum dosage-normalized steady state plasma level (Cmax, ss, norm)", "setting": "[4]; IR tablets twice daily, average distribution volume 50 litres", "value": "40 to 43", "unit": "ng/mL/mg"},
      {"measurement": "Tmax", "setting": "[4]; IR tablets, after administration", "value": "1.4 to 1.5", "unit": "h"},
      {"measurement": "elimination half-life", "setting": "[4]; in vivo", "value": "13 to 14", "unit": "h"},
      {"measurement": "bioavailability", "setting": "[4]; oral", "value": "~100", "unit": "%"}
    ]}
  ]
}
